The values that follow are results of earlier work, collected in publication PMC6791383, “A side-by-side evaluation of [^18F]FDOPA enantiomers for non-invasive detection of neuroendocrine tumors by positron emission tomography” (Oncotarget, 2019).

The IC50 is the concentration that inhibits the measured activity by half.

This data set concerns LAT1. On the set-up: method as in PMID 21770378, PMID 11901210, PMID 25205473, PMID 30048132. The conditions noted are these: cited from earlier work.

Each structure is given as a SMILES string.

Take `N[C@H](Cc1ccc(O)c(O)c1)C(=O)O` [D-DOPA, 3,4-dihydroxy-D-phenylalanine]: the IC50 was 46 ± 23 µM.
